Like-named read-outs stand apart in the source and are kept apart here. Marks after values point to notes of the source that are not given here.
Columns and labels:
[1] = cited from earlier work
[2] = Study 2: pharmacokinetics of individually tailored (BSA- or weight-adjusted) dose of oral HC in adrenal-insufficient patients; assay type: in vivo, human; details: fasted
Procedure: (§1) Serum was separated from blood samples immediately after collection and stored at minus 20° C. until analysis. Cortisol concentrations were measured using an ACS:180 automatic chemiluminescence system (Kiron Diagnostic Corporation, East Walpole, USA). Intra- and inter-assay coefficients of variation were less than 7.6%.
(§2) The study was carried out in two groups of adrenal-insufficient patients, and a group of healthy subjects. It was approved by the North Sheffield Local Research Ethics Committee, and all participants gave written informed consent. All patients had primary or secondary adrenal insufficiency based on a 0900 h serum cortisol level off treatment of less than 50 nmol/l. Normal controls were matched to the second group of patients for gender, age, height, weight and BSA within 10% of individual patients. Patients on oestrogen replacement were studied after having stopped oestrogen for 6 weeks.
Study 2—Pharmacokinetics of individually tailored dose of oral HC and testing of monitoring protocol: A further 10 patients (6M, 4F; 46-68 y; BMI 24.4-35.5 kg/m^2) were studied after receiving HC doses of 5.5 mg/m^2 BSA (to the nearest practical dose unit) at 0830 h, 1 h before breakfast. The dosage was derived from analysis of the Study 1 data to minimise inter-subject variability. A tablet cutter was used to adjust the HC dose in 2.5 mg quanta, i.e. quarters of 10 mg tablets. Thus, the absolute dose ranged from 7.5 to 12.5 mg. Blood sampling was as in Study 1. Serum concentrations of endogenous cortisol were measured in 7 healthy subjects (3M, 4F; 44-68 y; BMI 23.2-28.7 kg/m^2) at the same time points as the patients but without ingestion of HC.
Owing to the discrete nature of dose increments (multiples of 2.5 mg) 9 of the 10 patients who had taken the BSA-adjusted HC dose would still require the same dose if this had been weight-adjusted. Only one of the 10 patients needed a reduction in the HC dose from 12.5 mg to 10.0 mg to be in the nearest weight-adjusted dose range.
Therefore, in the part of our analysis that was related to body weight-adjusted doses, the serum cortisol levels of this patient were normalised to a 10.0 mg dose assuming concentration-dose proportionality.
(§3) Kinetic analysis of the serum cortisol concentration-time profiles in the patients was carried out using the software package, P-Pharm (version 1.5, InnaPhase, France), assuming mono-exponential disposition, first-order absorption, and a baseline correction to account for any endogenous levels of cortisol. Values of oral clearance (CL/F), volume of distribution (V/F), absorption rate constant (ka) and absorption lag time (tlag) were obtained from the model fitting and were used to derive other parameter values. Bias in dosing was assessed as the percentage difference in AUC values in patients compared to the AUC of endogenous cortisol in the healthy subjects over the same time period. Variability in the features of the serum cortisol concentration-time profile in the patients was expressed as coefficient of variation (CV). The effect of food intake in Study 1 was assessed using ANOVA, accounting for repeat individual measurements in the fasting state. Body surface area, weight, height, BMI, dose of HC, gender and age were also investigated as co-variables. All statistical analyses were carried out using SPSS version 10.0 (SPSS Inc, USA).

[3] = Study 1: pharmacokinetics of 10 mg fixed dose oral HC in adrenal-insufficient patients; assay type: in vivo, human; details: for oral clearance / half-life: 10 mg oral, mean±S.E.M.; for Bias (AUC), % difference from healthy matched controls / Variability in AUC (C.V.) / Variability in Cmax (C.V.): Fixed 10 mg, listed as HC; for half-life: both sexes, human, serum, po, 10 mg, read-out: absorption half-life
Procedure: as §1, §2
Study 1—Pharmacokinetics of 10 mg fixed dose oral HC: Ten patients (5M, 5F, Age 32-72 yrs, BMI 21.7-35.8 kg/m^2) attended the Programmed Investigation Unit on 3 occasions. They discontinued HC replacement from noon on the day prior to the study and fasted from midnight. On the first and third occasions, the patients fasted throughout the study and, on the second occasion, they received a standard breakfast 20-30 minutes before receiving HC. On each of the 3 study days, patients received 10 mg of HC (Hydrocortone™, Merck, Sharp and Dohme) orally, between 0800-0900 h. Peripheral venous blood samples were taken immediately before dosage and at 20, 40, 50, 60, 70, 80, 90, 100, 120, 180, 240, 300 and 360 minutes after dosage; the serum was collected and stored pending assay for HC.
as §3

[4] = 20 mg hydrocortisone, cited from earlier work
ACTH = assay: Circadian hydrocortisone infusion in a patient with congenital adrenal hyperplasia (CAH), ACTH and 17-OH progesterone; assay type: in vivo, human
Procedure: A treatment regime involves the following protocol. A patient begins a treatment regime at 0830 having taken normal medication the day before. An indwelling cannula is inserted into the patient and basal blood samples are obtained to determine basal levels of cortisol. An infusion cannula is inserted for the administration of a bolus dose of hydrocortisone. Hydrocortisone is administered by infusion once basal samples taken (Patient details: body weight=113 kg; iv bolus 24 mg at 09:00 and follow the infusion rates changed on hourly bases). Total dose for the 1st day is 34.3 mg and 21.8 mg is given by 09:00 in the 2nd day). Samples are taken from the patient periodically from 0900 to 0900 and sampled hourly for cortisol, and ACTH
Dilute 100 mg of hydrocortisone in 2 ml of water for injection (concentration 1 mg/20 ul). Give bolus injection of 24 mg hydrocortisone (480 ul or 0.48 ml of hydrocortisone) using a 1 ml insulin syringe. Flush through with normal saline. For infusion put 50 mg of hydrocortisone (1 ml) in 49 mls normal saline=1 mg/ml and the run infusion according to the protocol above.
as §1
The method comprised the infusion of a patient suffering from CAH with hydrocortisone and the measurement of cortisol and ACTH levels. The patient is a person with CAH who is currently treated with oral hydrocortisone.
The infusion protocol for the patient is described in FIG. 5. […] Concomitant with the fall in ACTH the 17-OH progesterone fell from >500 nmol/l to a nadir of 67 nmol/l.

[5] = in vivo; cited from earlier work
[6] = Weight-adjusted (0.12 mg/kg), if weight adjustment was assumed

C[C@]12CCC(=O)C=C1CC[C@@H]1[C@@H]2[C@@H](O)C[C@@]2(C)[C@H]1CC[C@]2(O)C(=O)CO [hydrocortisone, Hydrocortisone]
circulating cortisol bound to CBG ([1]; basal conditions, plasma): about 75%
cortisol and metabolites conjugated in the liver and excreted in the urine ([1]; in vivo): Over 90%
cortisol excreted in the urine unchanged ([1]; in vivo): less than 1%
Bias (AUC), % difference from healthy matched controls ([2]; BSA-adjusted (5.5 mg/m^2)): 7.4%
Variability in AUC (C.V.) ([2]; BSA-adjusted (5.5 mg/m^2)): 24%**
Variability in Cmax (C.V.) ([2]; BSA-adjusted (5.5 mg/m^2)): 10%*
Variability in AUC (C.V.) [2, 6]: 22%**
Variability in Cmax (C.V.) [2, 6]: 7%*
oral clearance ([3]; fasted): 0.270 ± 0.027 L/min
oral clearance ([3]; fed): 0.226 ± 0.031 L/min
Bias (AUC), % difference from healthy matched controls ([3]; fasted): 6.3%
Variability in AUC (C.V.) ([3]; fasted): 50%
Variability in Cmax (C.V.) ([3]; fasted): 31%
Bias (AUC), % difference from healthy matched controls ([3]; fed): 24.5%
Variability in AUC (C.V.) ([3]; fed): 45%
Variability in Cmax (C.V.) ([3]; fed): 36%
half-life ([3]; fasted): 15 ± 4 min
half-life ([3]; fed): 43 ± 12 min
half-life ([4]; IV administration): 102 min
total body clearance ([4]; IV administration): 18 L/h
volume of distribution ([4]; IV administration): 34 L
Oral bioavailablity ([4]; oral vs IV, average): 96%
time to maximum levels (absorption) ([4]; oral): 1 h
17-OH progesterone before the fall (ACTH; CAH patient on conventional oral hydrocortisone therapy, start of infusion): > 500 nmol/L
17-OH progesterone nadir (ACTH; CAH patient, during hydrocortisone infusion): 67 nmol/L
morning ACTH after overnight increase in cortisol (ACTH; CAH patient, infusion simulating delayed and sustained release hydrocortisone): prevents the high morning ACTH
ACTH during the infusion (ACTH; CAH patient, iv bolus 24 mg then circadian infusion): rapidly falls
oral bioavailability [5]: 94-96%

From patent publication US20050037074A1, “Delayed and sustained drug release” (priority 2001, published 2005)
